Positions of bridges follow the written chain, without caps; N, C: chain ends. Non-standard residues stand in square brackets, D forms with d. Residues, ends and D or L forms follow the SMILES beside them. Chains are numbered I, II in the order given. *: point of attachment. X1 = CC[C@H](C)CCCCC(=O)*; Dab = NCC[C@H](N)C(=O)O

One assay relates to P. aeruginosa DR4877/07. Kind of assay: microbe, parasite or virus in culture. The conditions noted are these: for MIC: Pseudomonas aeruginosa, DR4877/07, 24 h, read-out: MIC of antibiotics. As to the method:
MIC of each peptide was determined using the microdilution method in a 96 well microtitre plates (SPL Life Sciences Co., Ltd, Korea). Two-fold serial dilutions of each peptide in Mueller-Hinton Broth (MHB) was prepared from a 1 mg/ml stock solution of the peptide in the same broth, to obtain a final concentration in the range of 0.0976–50 μg/ml in each well. Bacterial suspensions (P. aeruginosa ATCC 27853, P. aeruginosa 4877, P. aeruginosa 23155, K. pneumoniae ATCC 10031 and K. pneumoniae 4299) were prepared by suspending the overnight cultured bacteria in saline and adjusting the inoculum to ~10^8 colony forming units (CFU) per ml. A further 150-fold dilution was then prepared in MHB to achieve a final cell density of 10^5–10^6 CFU/ml. In each well, 100 μl of inoculum was mixed with the equal volume of peptides at their 2× concentration. Positive and negative controls contained 200 μl of inoculum (without any peptide) and broth alone (no peptide/inoculum) respectively. Another negative control in which MHB containing 200 μl of peptide alone in its highest concentration tested (50 μg/ml) was also included to ensure that the optical density measured in the test wells was not due to turbidity of the peptides in solution. The 96 well polystyrene plates were then incubated at 37 °C for 24 h and the optical density at 600 nm (OD600) was measured every 30 min continuously using a TECAN microplate reader (TECAN Infinite 200, Austria).

The next assay has as its system P. aeruginosa ATCC 27853. The format is cell-based. To be noted: for Fractional inhibitory concentration of peptide/PMB, combination with Genta: first number in parenthesis; for Fractional inhibitory concentration of peptide/PMB, combination with Genta / Fractional inhibitory concentration of antibiotic, Genta combination: ATCC 27853; for Fractional inhibitory concentration of antibiotic, Genta combination: second number in parenthesis. The method in brief:
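Checkerboard combinations of peptide and antibiotic, each 2-fold diluted up to 1× MIC in MHB, were tested against ~10^6 CFU/ml final inoculum. Plates were incubated 24 h at 37 °C, with growth read at OD600. FICI was the sum of the combination-to-alone MIC ratios for each agent, and the lowest FICI from duplicate experiments was reported.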

The subject of the next assay is P. aeruginosa ATCC 9027. Kind of assay: Outer membrane permeability assay (NPN). The conditions noted are these: no unit in table; Fig. S5 axis [Peptide], μM; 10 μM NPN, 5 mM HEPES pH 7.4, ex 355/em 405 nm; average of two titrations; read-out: PC50 (peptide concentration for half-maximal NPN intensity, OM permeability). It is filed as cell-based. The method in brief: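 Overnight MHB-grown cells were washed and resuspended in 5 mM HEPES pH 7.4 to OD600 0.200, then loaded with 10 μM NPN (final), with peptide titrated in after dye stabilization. Fluorescence ex 355/em 405 nm; PC50 is the peptide concentration giving half-maximal intensity, from a sigmoidal fit averaged over two titrations.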

In the case of `COc1c(N2CCNC(C)C2)c(F)cc2c(=O)c(C(=O)O)cn(C3CC3)c12` (centres unmarked) [Gatifloxacin], the MIC with P. aeruginosa DR4877/07 is 31.2 µg/mL.
As for `CC[C@H](C)CCCCC(=O)N[C@@H](CCN)C(=O)N[C@H](C(=O)N[C@@H](CCN)C(=O)N[C@H]1CCNC(=O)[C@H]([C@@H](C)O)NC(=O)[C@H](CCN)NC(=O)[C@H](CCN)NC(=O)[C@H](CC(C)C)NC(=O)[C@@H](Cc2ccccc2)NC(=O)[C@H](CCN)NC1=O)[C@@H](C)O` [Polymyxin B, polymyxin B, reference compound] (X1-[Dab]T[Dab][Dab][Dab][dF]L[Dab][Dab]T; lactam 4-C (inferred); N-terminus assumed), the “Minimum Inhibitory Concentration against P. aeruginosa DR4877/07” value with P. aeruginosa DR4877/07 (MHB, 10^5–10^6 CFU/ml, 37 °C, 24 h, two independent duplicates) is 1.13 µM. In addition, the MIC of Polymyxin B against this strain in the assay with P. aeruginosa DR4877/07 (alone) stood at 1.56 µg/mL. Besides, in the assay with P. aeruginosa ATCC 27853, the “Fractional inhibitory concentration of peptide/PMB, combination with Genta” value was “(0.5,0.5)” and the “Fractional inhibitory concentration of antibiotic, Genta combination” value is “(0.5,0.5)”. The “Fractional Inhibitory Concentration Index with Genta” value with P. aeruginosa ATCC 27853 (peptide + gentamicin, P. aeruginosa ATCC 27853) is 1.0. Further, the EC50 in the assay on P. aeruginosa ATCC 9027 turned out to be 5.82 ± 0.6 µM.
As for `CC(C)[C@H](NC(=O)[C@H](CCCCN)NC(=O)[C@H](CCCNC(=N)N)NC(=O)CNC(=O)[C@@H](N)CCCNC(=N)N)C(=O)N[C@H](C(=O)N[C@@H](CCCNC(=N)N)C(=O)N[C@@H](CCCNC(=N)N)C(=O)NCCCC[C@H](NC(=O)[C@H](CCCNC(=N)N)NC(=O)[C@H](CCCNC(=N)N)NC(=O)[C@@H](NC(=O)[C@@H](NC(=O)[C@H](CCCCN)NC(=O)[C@H](CCCNC(=N)N)NC(=O)CNC(=O)[C@@H](N)CCCNC(=N)N)C(C)C)C(C)C)C(=O)N[C@@H](CCCCN)C(=O)O)C(C)C` [B2088] (I: H-RGRKVVRRKK-OH / II: H-RGRKVVRR; amide I:9-II:C; N-terminus and C-terminus assumed), in the assay on P. aeruginosa ATCC 27853, the “Fractional inhibitory concentration of peptide/PMB, combination with Genta” value was “(0.25,0.25)” and the “Fractional inhibitory concentration of antibiotic, Genta combination” value was “(0.25,0.25)”. Moreover, in the assay on P. aeruginosa ATCC 9027, the EC50 came to 13.2 ± 0.4 µM.
For the molecule `NC[C@H]1O[C@H](O[C@H]2[C@H](O)[C@@H](O[C@H]3O[C@H](CO)[C@@H](O)[C@H](N)[C@H]3O)[C@H](N)C[C@@H]2N)[C@H](N)C[C@@H]1O` [Tobramycin], the MIC in the assay with P. aeruginosa DR4877/07 turned out to be 800 µg/mL.
